Laboratory results taken from BindingDB's records for doi:10.1007/s002100000312 (Biocentre Niederursel, 2000).

Legend:
[1] = molecular target: T1, P2X purinoceptor 1 (Homo sapiens, UniProt P51575)
T1 sequence (P51575 whole entry): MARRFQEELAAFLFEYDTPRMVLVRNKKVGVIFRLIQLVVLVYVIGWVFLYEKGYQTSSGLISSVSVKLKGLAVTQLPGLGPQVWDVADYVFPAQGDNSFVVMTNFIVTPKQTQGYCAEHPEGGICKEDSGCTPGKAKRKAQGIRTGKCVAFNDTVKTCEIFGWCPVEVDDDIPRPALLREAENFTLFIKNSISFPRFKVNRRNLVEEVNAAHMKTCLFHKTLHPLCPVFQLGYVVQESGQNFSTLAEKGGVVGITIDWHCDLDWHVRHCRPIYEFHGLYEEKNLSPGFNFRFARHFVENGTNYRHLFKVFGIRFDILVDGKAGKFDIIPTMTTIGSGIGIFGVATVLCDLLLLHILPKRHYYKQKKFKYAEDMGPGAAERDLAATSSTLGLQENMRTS

[2] = molecular target: T2, P2X purinoceptor 2 (Rattus norvegicus, UniProt P49653)
T2 sequence (P49653 whole entry): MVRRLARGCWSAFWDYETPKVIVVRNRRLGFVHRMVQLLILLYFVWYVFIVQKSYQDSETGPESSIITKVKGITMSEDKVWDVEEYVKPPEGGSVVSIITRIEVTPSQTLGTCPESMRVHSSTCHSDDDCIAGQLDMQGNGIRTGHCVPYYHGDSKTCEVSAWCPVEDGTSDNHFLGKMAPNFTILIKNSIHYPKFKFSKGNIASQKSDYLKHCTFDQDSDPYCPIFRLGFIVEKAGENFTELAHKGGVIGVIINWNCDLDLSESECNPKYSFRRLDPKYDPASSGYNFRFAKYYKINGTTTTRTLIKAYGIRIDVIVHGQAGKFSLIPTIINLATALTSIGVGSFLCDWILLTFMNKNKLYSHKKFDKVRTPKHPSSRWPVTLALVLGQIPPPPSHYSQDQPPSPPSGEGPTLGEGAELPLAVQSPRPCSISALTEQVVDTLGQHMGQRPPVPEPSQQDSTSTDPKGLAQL

[3] = molecular target: T3, P2X purinoceptor 1 (Rattus norvegicus, UniProt P47824)
T3 sequence (P47824 whole entry): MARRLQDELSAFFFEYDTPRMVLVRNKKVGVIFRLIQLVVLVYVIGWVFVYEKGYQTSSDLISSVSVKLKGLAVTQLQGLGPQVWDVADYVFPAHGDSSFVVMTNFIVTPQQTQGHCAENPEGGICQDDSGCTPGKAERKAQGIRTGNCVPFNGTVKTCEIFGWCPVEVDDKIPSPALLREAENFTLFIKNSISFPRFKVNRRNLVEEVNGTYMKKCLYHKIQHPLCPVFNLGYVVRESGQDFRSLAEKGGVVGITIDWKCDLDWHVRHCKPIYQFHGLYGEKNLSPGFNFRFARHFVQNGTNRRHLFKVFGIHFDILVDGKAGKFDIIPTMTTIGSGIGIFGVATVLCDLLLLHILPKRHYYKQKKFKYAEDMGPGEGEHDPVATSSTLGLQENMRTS

[4] = molecular target: T4, P2X purinoceptor 4 (Homo sapiens, UniProt Q99571)
T4 sequence (Q99571 whole entry): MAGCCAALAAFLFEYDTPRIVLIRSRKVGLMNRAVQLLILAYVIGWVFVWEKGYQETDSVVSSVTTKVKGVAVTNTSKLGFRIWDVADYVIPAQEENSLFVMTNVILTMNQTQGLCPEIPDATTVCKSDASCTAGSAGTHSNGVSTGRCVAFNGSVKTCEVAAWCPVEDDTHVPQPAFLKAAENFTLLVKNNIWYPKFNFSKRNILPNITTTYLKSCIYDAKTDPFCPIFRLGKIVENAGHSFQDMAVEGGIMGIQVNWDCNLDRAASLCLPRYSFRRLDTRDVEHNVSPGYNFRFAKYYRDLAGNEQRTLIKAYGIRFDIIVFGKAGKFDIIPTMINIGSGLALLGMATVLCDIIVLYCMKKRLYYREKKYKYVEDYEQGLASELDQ

[5] = molecular target: T5, P2X purinoceptor 7 (Homo sapiens, UniProt Q99572)
T5 sequence (Q99572 whole entry): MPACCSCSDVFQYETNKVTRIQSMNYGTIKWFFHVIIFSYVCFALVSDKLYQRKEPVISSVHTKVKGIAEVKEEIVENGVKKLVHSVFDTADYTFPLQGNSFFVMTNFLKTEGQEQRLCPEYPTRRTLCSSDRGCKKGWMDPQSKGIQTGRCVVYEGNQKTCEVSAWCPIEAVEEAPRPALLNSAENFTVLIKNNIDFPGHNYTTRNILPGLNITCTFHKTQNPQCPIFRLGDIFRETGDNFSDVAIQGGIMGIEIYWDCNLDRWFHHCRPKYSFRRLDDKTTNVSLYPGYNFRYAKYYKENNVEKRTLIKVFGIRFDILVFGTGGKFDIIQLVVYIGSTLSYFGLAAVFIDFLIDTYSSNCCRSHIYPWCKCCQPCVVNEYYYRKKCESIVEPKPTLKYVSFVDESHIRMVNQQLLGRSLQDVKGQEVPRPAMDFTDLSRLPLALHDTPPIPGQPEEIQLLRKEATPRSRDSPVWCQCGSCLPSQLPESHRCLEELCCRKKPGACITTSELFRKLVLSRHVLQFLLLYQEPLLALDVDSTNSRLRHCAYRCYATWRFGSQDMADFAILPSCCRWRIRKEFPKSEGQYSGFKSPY

[6] = molecular target: T6, P2X purinoceptor 3 (Rattus norvegicus, UniProt P49654)
T6 sequence (P49654 whole entry): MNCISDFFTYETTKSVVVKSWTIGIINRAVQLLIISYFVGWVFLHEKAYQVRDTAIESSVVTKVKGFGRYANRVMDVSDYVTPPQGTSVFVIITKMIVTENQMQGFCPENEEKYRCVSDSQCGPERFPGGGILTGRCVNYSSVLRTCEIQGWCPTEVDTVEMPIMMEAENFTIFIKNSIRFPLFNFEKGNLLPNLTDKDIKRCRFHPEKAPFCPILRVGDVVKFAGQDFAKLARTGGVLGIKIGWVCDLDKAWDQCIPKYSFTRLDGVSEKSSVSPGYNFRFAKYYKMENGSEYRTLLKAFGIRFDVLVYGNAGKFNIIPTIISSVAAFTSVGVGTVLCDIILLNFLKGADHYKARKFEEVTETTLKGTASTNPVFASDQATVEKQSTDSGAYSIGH

Ki [1] [nM]	Ki [2] [nM]	Ki [3] [nM]	Ki [4] [nM]	Ki [5] [nM]	Ki [6] [nM]	Structure (SMILES)
1000	> 10000	1000	> 10000	> 10000	1000	O=C(Nc1ccc(C(=O)Nc2ccc(C(=O)Nc3ccc(S(=O)(=O)O)c4cc(S(=O)(=O)O)cc(S(=O)(=O)O)c34)cc2)cc1)Nc1ccc(C(=O)Nc2ccc(C(=O)Nc3ccc(S(=O)(=O)O)c4cc(S(=O)(=O)O)cc(S(=O)(=O)O)c34)cc2)cc1 [CAS_5311315]
	> 10000	1000	> 10000		1000	O=C(Nc1cccc(Nc2ccc(S(=O)(=O)O)c3cc(S(=O)(=O)O)cc(S(=O)(=O)O)c23)c1)Nc1cccc(Nc2ccc(S(=O)(=O)O)c3cc(S(=O)(=O)O)cc(S(=O)(=O)O)c23)c1 [NSC_5311313]
	> 10000	50	5000		> 10000	Cc1ccc(C(=O)Nc2ccc(S(=O)(=O)O)c3cc(S(=O)(=O)O)cc(S(=O)(=O)O)c23)cc1NC(=O)c1cccc(NC(=O)Nc2cccc(C(=O)Nc3cc(C(=O)Nc4ccc(S(=O)(=O)O)c5cc(S(=O)(=O)O)cc(S(=O)(=O)O)c45)ccc3C)c2)c1 [suramin]
